Laboratory results taken from paper PMC5811606, “Characterization of ^111In-labeled Glucose-Dependent Insulinotropic Polypeptide as a Radiotracer for Neuroendocrine Tumors” (Scientific Reports, 2018).
Like-named read-outs stand apart in the source and are kept apart here.

Experiment: Biodistribution study, BHK-GIPR tumor mice
Assay type: in vivo, BALB/c nude mice
Conditions: female, mouse, iv, total radioactivity, BHK-GIPR tumor BALB/c nude mice, i.v., 0.2 µg, mean n=5; for tissue uptake at 1 h / tissue uptake at 4 h / tissue uptake at 24 h: BALB/c nude; for tissue uptake at 1 h / tissue to tissue ratio at 1 h: 1 h p.i.; for tissue uptake at 24 h / tissue to tissue ratio at 24 h: 24 h p.i.
Protocol: All animal experiments were approved by the Animal Welfare Body of the Radboud University, Nijmegen, The Netherlands and carried out in accordance with their guidelines. Six to eight weeks old, female BALB/c nude mice and C3H mice were purchased from Janvier labs (Le Genest Saint Isle, France). For all in vivo experiments, 6-8 weeks old female BALB/c nude mice were injected subcutaneously in the right shoulder with 0.2 ml of a 2.5 × 10^7 cells/ml suspension of BHK-GIPR transfected cells or with 0.2 ml of a 2.5 × 10^7 cells/ml suspension of NES2Y cells mixed with matrigel (2:1) in the right shoulder. When the tumor reached a diameter of 2-5 mm, mice were randomly divided in groups.
BALB/c nude mice bearing BHK-GIPR transfected tumors were injected intravenously with approximately 3 MBq (peptide dose 0.2 µg = 0.04 nmol) of [Lys^37(^111In-DTPA)]N-acetyl-GIP1-42 via the tail vein. At various time points after injection (1, 4 and 24 hours), mice were euthanized by CO2/O2 suffocation and blood, tumor and other relevant tissues were dissected, weighed and measured in a well type gamma counter. The percentage injected dose per gram (%ID/g) was calculated for each tissue. To determine whether the GIP1-42 uptake was GIPR mediated, 25 µg of unlabeled GIP1-42 was co-injected in a separate group (n = 5) and mice were euthanized four hours post-injection. BALB/c nude mice bearing NES2Y tumors (n = 5) were injected intravenously with approximately 3 MBq (peptide dose 0.2 µg = 0.04 nmol) of [Lys^37(^111In-DTPA)]N-acetyl-GIP1-42 via the tail vein. One hour after injection, mice were euthanized by CO2/O2 suffocation and blood, tumor and other relevant tissues were dissected, weighed and measured in a well type gamma counter. The percentage injected dose per gram (%ID/g) was determined for each tissue. To determine whether the GIP1-42 uptake was GIPR mediated, 25 µg of unlabeled GIP1-42 was co-injected in a separate group (n = 2) and mice were euthanized one hours post-injection.

[1] = BHK-GIPR tumor, 0.2 ug, read-out: Tumor uptake
[2] = blood, 0.2 ug, read-out: Blood uptake
[3] = duodenum, 0.2 ug, read-out: Duodenum uptake
[4] = heart, 0.2 ug, read-out: Heart uptake
[5] = kidney, 0.2 ug, read-out: Kidney uptake
[6] = liver, 0.2 ug, read-out: Liver uptake
[7] = lung, 0.2 ug, read-out: Lung uptake
[8] = muscle, 0.2 ug, read-out: Muscle uptake
[9] = pancreas, 0.2 ug, read-out: Pancreas uptake
[10] = spleen, 0.2 ug, read-out: Spleen uptake
[11] = stomach, 0.2 ug, read-out: Stomach uptake
[12] = tumor/blood, 0.2 ug, read-out: Tumor/Blood
[13] = tumor/heart, 0.2 ug, read-out: Tumor/Heart
[14] = tumor/kidney, 0.2 ug, read-out: Tumor/Kidney
[15] = tumor/muscle, 0.2 ug, read-out: Tumor/Muscle

`CC[C@H](C)[C@H](NC(=O)[C@H](CO)NC(=O)[C@H](Cc1ccc(O)cc1)NC(=O)[C@H](CC(=O)O)NC(=O)[C@H](CO)NC(=O)[C@@H](NC(=O)[C@H](Cc1ccccc1)NC(=O)[C@@H](NC(=O)CNC(=O)[C@H](CCC(=O)O)NC(=O)[C@H](C)NC(=O)[C@H](Cc1ccc(O)cc1)NC(C)=O)[C@@H](C)O)[C@@H](C)CC)C(=O)N[C@@H](C)C(=O)N[C@@H](CCSC)C(=O)N[C@@H](CC(=O)O)C(=O)N[C@@H](CCCCN)C(=O)N[C@H](C(=O)N[C@@H](Cc1c[nH]cn1)C(=O)N[C@@H](CCC(N)=O)C(=O)N[C@@H](CCC(N)=O)C(=O)N[C@@H](CC(=O)O)C(=O)N[C@@H](Cc1ccccc1)C(=O)N[C@H](C(=O)N[C@@H](CC(N)=O)C(=O)N[C@@H](Cc1c[nH]c2ccccc12)C(=O)N[C@@H](CC(C)C)C(=O)N[C@@H](CC(C)C)C(=O)N[C@@H](C)C(=O)N[C@@H](CCC(N)=O)C(=O)N[C@@H](CCCCN)C(=O)NCC(=O)N[C@@H](CCCCN)C(=O)N[C@@H](CCCCN)C(=O)N[C@@H](CC(N)=O)C(=O)N[C@@H](CC(=O)O)C(=O)N[C@@H](Cc1c[nH]c2ccccc12)C(=O)N[C@@H](CCCCNC(=O)CN(CCN(CCN(CC(=O)O)CC(=O)O)CC(=O)O)CC(=O)O)C(=O)N[C@@H](Cc1c[nH]cn1)C(=O)N[C@@H](CC(N)=O)C(=O)N[C@H](C(=O)N[C@H](C(=O)N[C@@H](CCC(N)=O)C(=O)O)[C@@H](C)O)[C@@H](C)CC)C(C)C)[C@@H](C)CC` [[Lys^37(^111In-DTPA)]N-acetyl-GIP1-42, metal not drawn] showed a tissue uptake at 1 h [1] of 4.69 %ID/g, a tissue uptake at 4 h (BHK-GIPR tumor, 0.2 ug, 4 h p.i., read-out: Tumor uptake) of 3.27 %ID/g and a tissue uptake at 24 h [1] of 2 ± 0.2 %ID/g. It also gave a tissue uptake at 4 h (BHK-GIPR tumor, 4 h p.i. + xs (25 µg unlabeled GIP1-42), read-out: Tumor uptake) of 0.8 ± 0.2 %ID/g, a tissue uptake at 1 h [2] of 0.248 %ID/g and a tissue uptake at 4 h (blood, 0.2 ug, 4 h p.i., read-out: Blood uptake) of 0.045 %ID/g. The tissue uptake at 24 h [2] was 0.017 %ID/g, the tissue uptake at 4 h (blood, 4 h p.i. + xs (25 µg unlabeled GIP1-42), read-out: Blood uptake) was 0.031 %ID/g and the tissue uptake at 1 h [3] was 0.561 %ID/g. The tissue uptake at 4 h (duodenum, 0.2 ug, 4 h p.i., read-out: Duodenum uptake) was 0.448 %ID/g, the tissue uptake at 24 h [3] was 0.378 %ID/g and the tissue uptake at 4 h (duodenum, 4 h p.i. + xs (25 µg unlabeled GIP1-42), read-out: Duodenum uptake) was 0.392 %ID/g. The tissue uptake at 1 h [4] was 0.2 %ID/g, the tissue uptake at 4 h (heart, 0.2 ug, 4 h p.i., read-out: Heart uptake) was 0.116 %ID/g and the tissue uptake at 24 h [4] was 0.081 %ID/g. For the same compound, the tissue uptake at 4 h (heart, 4 h p.i. + xs (25 µg unlabeled GIP1-42), read-out: Heart uptake) was 0.096 %ID/g, the tissue uptake at 1 h [5] was 211 %ID/g and the tissue uptake at 4 h (kidney, 0.2 ug, 4 h p.i., read-out: Kidney uptake) was 228 %ID/g. The tissue uptake at 24 h [5] was 173 %ID/g, the tissue uptake at 4 h (kidney, 4 h p.i. + xs (25 µg unlabeled GIP1-42), read-out: Kidney uptake) was 227 %ID/g and the tissue uptake at 1 h [6] was 1.1 %ID/g. It also gave a tissue uptake at 4 h (liver, 0.2 ug, 4 h p.i., read-out: Liver uptake) of 1.16 %ID/g, a tissue uptake at 24 h [6] of 0.695 %ID/g and a tissue uptake at 4 h (liver, 4 h p.i. + xs (25 µg unlabeled GIP1-42), read-out: Liver uptake) of 1.09 %ID/g. It also gave a tissue uptake at 1 h [7] of 0.545 %ID/g, a tissue uptake at 4 h (lung, 0.2 ug, 4 h p.i., read-out: Lung uptake) of 0.332 %ID/g and a tissue uptake at 24 h [7] of 0.184 %ID/g. For the same compound, the tissue uptake at 4 h (lung, 4 h p.i. + xs (25 µg unlabeled GIP1-42), read-out: Lung uptake) was 0.331 %ID/g, the tissue uptake at 1 h [8] was 0.135 %ID/g and the tissue uptake at 4 h (muscle, 0.2 ug, 4 h p.i., read-out: Muscle uptake) was 0.082 %ID/g. For the same compound, the tissue uptake at 24 h [8] was 0.058 %ID/g, the tissue uptake at 4 h (muscle, 4 h p.i. + xs (25 µg unlabeled GIP1-42), read-out: Muscle uptake) was 0.068 %ID/g and the tissue uptake at 1 h [9] was 0.296 %ID/g. It also gave a tissue uptake at 4 h (pancreas, 0.2 ug, 4 h p.i., read-out: Pancreas uptake) of 0.193 %ID/g, a tissue uptake at 24 h [9] of 0.137 %ID/g and a tissue uptake at 4 h (pancreas, 4 h p.i. + xs (25 µg unlabeled GIP1-42), read-out: Pancreas uptake) of 0.147 %ID/g. For the same compound, the tissue uptake at 1 h [10] was 0.603 %ID/g, the tissue uptake at 4 h (spleen, 0.2 ug, 4 h p.i., read-out: Spleen uptake) was 0.528 %ID/g and the tissue uptake at 24 h [10] was 0.493 %ID/g. It also gave a tissue uptake at 4 h (spleen, 4 h p.i. + xs (25 µg unlabeled GIP1-42), read-out: Spleen uptake) of 0.519 %ID/g, a tissue uptake at 1 h [11] of 0.502 %ID/g and a tissue uptake at 4 h (stomach, 0.2 ug, 4 h p.i., read-out: Stomach uptake) of 0.362 %ID/g. The tissue uptake at 24 h [11] was 0.258 %ID/g, the tissue uptake at 4 h (stomach, 4 h p.i. + xs (25 µg unlabeled GIP1-42), read-out: Stomach uptake) was 0.268 %ID/g and the tissue to tissue ratio at 24 h (tumor and lung, 0.2 ug, read-out: Tumor/Lung) was 11.3. For the same compound, the tissue to tissue ratio at 1 h [12] was 21.8, the tissue to tissue ratio at 4 h (tumor/blood, 0.2 ug, 4 h p.i., read-out: Tumor/Blood) was 77.6 and the tissue to tissue ratio at 24 h [12] was 130. It also gave a tissue to tissue ratio at 4 h (tumor/blood, 4 h p.i. + xs (25 µg unlabeled GIP1-42), read-out: Tumor/Blood) of 29.8, a tissue to tissue ratio at 1 h [13] of 23.6 and a tissue to tissue ratio at 4 h (tumor/heart, 0.2 ug, 4 h p.i., read-out: Tumor/Heart) of 29. For the same compound, the tissue to tissue ratio at 24 h [13] was 25.5, the tissue to tissue ratio at 4 h (tumor/heart, 4 h p.i. + xs (25 µg unlabeled GIP1-42), read-out: Tumor/Heart) was 8.89 and the tissue to tissue ratio at 1 h [14] was 0.023. The tissue to tissue ratio at 4 h (tumor/kidney, 0.2 ug, 4 h p.i., read-out: Tumor/Kidney) was 0.014, the tissue to tissue ratio at 24 h [14] was 0.011 and the tissue to tissue ratio at 4 h (tumor/kidney, 4 h p.i. + xs (25 µg unlabeled GIP1-42), read-out: Tumor/Kidney) was 0.004. The tissue to tissue ratio at 1 h (tumor/lung, 0.2 ug, read-out: Tumor/Lung) was 8.64, the tissue to tissue ratio at 4 h (tumor/lung, 0.2 ug, 4 h p.i., read-out: Tumor/Lung) was 10.1 and the tissue to tissue ratio at 4 h (tumor/lung, 4 h p.i. + xs (25 µg unlabeled GIP1-42), read-out: Tumor/Lung) was 2.68. It also gave a tissue to tissue ratio at 1 h [15] of 35, a tissue to tissue ratio at 4 h (tumor/muscle, 0.2 ug, 4 h p.i., read-out: Tumor/Muscle) of 40.4 and a tissue to tissue ratio at 24 h [15] of 36.4. It also gave a tissue to tissue ratio at 4 h (tumor/muscle, 4 h p.i. + xs (25 µg unlabeled GIP1-42), read-out: Tumor/Muscle) of 12.4.
